According to patent US20080234362A1, “Treatment for Asthma and Arthritis and Other Inflammatory Diseases” (BIONOVATE LIMITED, priority 2004, published 2008):
“Also recorded” adds a separate entry of the source. Read-outs that look alike come from different tables or passages of the source.

Assays:
mast cells = conditions: cited from earlier work; for IC50: read-out: IC50 (μM) degranulation of mast cells; for ranking of activity in the anti-allergy model: mast cell degranulation
TNFα = conditions: cited from earlier work
[1] = tested on: histamine, TNFα and IL-1B induced by IgE; conditions: mouse and rat model; cited from earlier work
[2] = tested on: Recurrent airway obstruction (RAO); assay: double-blind placebo controlled clinical trial on recurrent airway obstruction in horses; format: in vivo; conditions: horses with RAO
Excerpt: A Double-Blind Placebo Controlled Clinical Trial comparing the Efficacy of the Green Lipped Mussel Lipid Extract and Flavonoid alone and in Combination on Recurrent Airway Obstruction in Horses.
Recurrent airway obstruction (RAO), an equine asthma, is a chronic inflammatory disease of the airways typified by bronchoconstriction, wheezing and increased mucous production and caused by allergy to fungal and other dusts but mediated, in part, by leukotrienes and other lipid mediators. […] Studies included clinical status, exercise recovery, breath condensate, broncho-alveolar lavage, cytology and mucous scorings.
Eight horses aged 9-21 with RAO symptoms and cytology consistent with the accepted definition of RAO were recruited.
The study was a double blind randomized, placebo controlled trial. […]
Subjects were clinically and endoscopically examined and BAL and condensate collected and frozen in liquid nitrogen every two weeks. […] The BAL cytology was scored by neutrophil count. Mucous was scored by location, type, volume and viscosity. […]
The clinical assessments scores were assessed as a mean clinical RAO score. The clinical assessments were evaluated on a scale of 1-10 where 1 was severe disease symptomology and 10 indicated a disease-free condition score and the results are shown in Table 1 and FIG. 3. […]

TPA-induced ear oedema = conditions: cited from earlier work
[3] = tested on: antigen-induced bronchoconstriction and airway hyper-reactivity; conditions: oral, before and after sensitisation; ovalbumin; cited from earlier work
[4] = in vitro; cited from earlier work
LTB4 production = conditions: 9 g/day; cited from earlier work

O=c1c(O)c(-c2ccccc2)oc2ccc(O)cc12 [3,6-dihydroxyflavone]
IC50 (mast cells): 6 µM

O=c1c(O)c(-c2ccccc2)oc2ccccc12 [3-hydroxyflavone]
IC50 (mast cells): > 100 µM

O=c1cc(-c2ccccc2)oc2ccc(O)cc12 [6-hydroxyflavone]
IC50 (mast cells): 28 µM

O=c1cc(-c2ccccc2)oc2cc(O)ccc12 [7-hydroxyflavone]
IC50 (mast cells): 21 µM

O=c1cc(-c2ccc(O)cc2)oc2cc(O)cc(O)c12 [Apigenin]
oral in vivo anti-TNFα activity (TNFα): potent
ranking of activity in the anti-allergy model (mast cells): most active
IC50 (mast cells): 4.5 µM

O=c1cc(-c2ccccc2)oc2cc(O)c(O)c(O)c12 [Baicalein]
potency on IgE-induced histamine, TNFα and IL-1B production versus other agents [1]: more potent than many other agents
IC50 (mast cells): 17 µM

O=c1cc(-c2ccccc2)oc2cc(O)cc(O)c12 [Chrysin]
IC50 (mast cells): > 100 µM

COc1ccc(-c2cc(=O)c3c(O)cc(O)cc3o2)cc1O [Diosmetin]
ranking of activity in the anti-allergy model (mast cells): most active

COc1ccc(-c2cc(=O)c3c(O)cc(O[C@@H]4O[C@H](CO[C@@H]5O[C@@H](C)[C@H](O)[C@@H](O)[C@H]5O)[C@@H](O)[C@H](O)[C@H]4O)cc3o2)cc1O [Diosmin]
IC50 (mast cells): > 100 µM

O=c1c(O)c(-c2ccc(O)c(O)c2)oc2cc(O)ccc12 [Fisetin]
ranking of activity in the anti-allergy model (mast cells): most active
IC50 (mast cells): 3.3 µM

O=c1cc(-c2ccccc2)oc2ccccc12 [Flavone]
IC50 (mast cells): > 100 µM

O=c1c(O)c(-c2ccccc2)oc2cc(O)cc(O)c12 [Galangin]
IC50 (mast cells): 40 µM

O=c1c(O)c(-c2ccc(O)cc2)oc2cc(O)cc(O)c12 [Kaempferol]
IC50 (mast cells): 7.5 µM

O=c1cc(-c2ccc(O)c(O)c2)oc2cc(O)cc(O)c12 [Luteolin]
potency on IgE-induced histamine, TNFα and IL-1B production versus other agents [1]: more potent than many other agents
oral in vivo anti-TNFα activity (TNFα): potent; also recorded: more potent than apigenin; also recorded: inhibited
Mean clinical RAO score ([2]; 4 capsules per day, 28 days, scale 1-10, 1 severe, 10 disease-free): 3.38^ade
improvement of respiratory function ([2]; versus placebo): significantly (P<0.001) improved
oral anti-inflammatory activity, TPA ear oedema (TPA-induced ear oedema): effective
antigen-induced bronchoconstriction and airway hyper-reactivity [3]: significantly reduced
ranking of activity in the anti-allergy model (mast cells): most potent
ranking of activity in the anti-allergy model (mast cells; listed as luteolin): most active
IC50 (mast cells): 1.8 µM

O=c1c(O)c(-c2ccc(O)cc2O)oc2cc(O)cc(O)c12 [Morin]
IC50 (mast cells): 51 µM

O=c1c(O)c(-c2cc(O)c(O)c(O)c2)oc2cc(O)cc(O)c12 [Myricetin]
antioxidant efficiency versus traditional vitamins [4]: more efficient antioxidants than traditional vitamins
IC50 (mast cells): 6.7 µM

O=c1c(O)c(-c2ccc(O)c(O)c2)oc2cc(O)cc(O)c12 [Quercetin]
potency on IgE-induced histamine, TNFα and IL-1B production versus other agents [1]: more potent than many other agents
antioxidant efficiency versus traditional vitamins [4]: more efficient antioxidants than traditional vitamins
oral anti-inflammatory activity, TPA ear oedema (TPA-induced ear oedema): effective
ranking of activity in the anti-allergy model (mast cells): most active
IC50 (mast cells): 3 µM

CC/C=C\C/C=C\C/C=C\CCCCCCCC(=O)O [a-LNA, a-linolenic acid]
LTB4 production and pulmonary function (LTB4 production): inhibit LTB4 production and improve pulmonary function
